Data: publication PMC10482267, “Safety, tolerability, pharmacokinetics, and pharmacodynamics of single and multiple doses of aficamten in healthy Chinese participants: a randomized, double-blind, placebo-controlled, phase 1 study” (Frontiers in Pharmacology, 2023)
Entries after “also recorded” stand apart in the source; their conditions may differ. Like-named read-outs stand apart in the source and are kept apart here.

Legend:
[1] = test system: healthy Chinese participants; format: in vivo, human
Description: Of note, the study was not designed to identify a maximum tolerated dose. Dose escalation was to stop if a non-tolerated dose was identified. PD endpoints, including left ventricular ejection fraction (LVEF), would be measured with echocardiograms, which were reviewed by an independent cardiologist for safety assessments. The study drug would be discontinued for participants who develop left ventricular dysfunction according to pre-specified stopping rules. For additional safety monitoring, an independent, unblinded cardiologist was present at the clinical research unit from dosing through the completion of the echocardiogram on the last dosing day.
Echocardiography assessments (left ventricular fractional shortening [LVFS], left ventricular stroke volume [LVSV], left ventricular outflow tract velocity time integral [LVOT-VTI], left ventricular end-systolic volume [LVESV], left ventricular end-diastolic volume [LVEDV], left ventricular cardiac output [LVCO], and LVEF) for the SAD cohorts were collected on day 1 (baseline) and at 1.5, 4, and 24 h post-dose on day 1. For the MD cohort, the assessments were collected on day 1 (baseline) at 1.5 and 4 h post-dose on day 1, at 1.5 h post-dose on days 2, 4, and 9, and at 3 and 24 h post-dose on day 14.
Of all the echocardiography parameters, the key parameters LVEF and LVFS were classified as follows with the number of participants summarized for each dosing condition: for the LVEF category, baseline LVEF ≥60%, and post-dose LVEF <50% or <45%; change of LVEF from baseline ≤ 5%, ≤10%, or ˂15%; for the VLFS category, change of LVFS from baseline ≤ 5%, ≤10%, or ˂15%. The dose–PD response relationship between the aficamten dose and placebo group was assessed using ANOVA analysis. […] Furthermore, the relationship between PK concentration–PD response was also assessed using ANCOVA analysis of post-dose PD parameters based on changes from baseline. The model included changes from baseline in PD parameters as the dependent variables, concentration tertiles (categorical variables) as fixed effects, baseline PD parameters as covariates, and the random intercept to account for repeated measures. In addition, the heart rate (HR), systolic blood pressure (SBP), and diastolic blood pressure (DBP) were collected as a part of the vital sign assessments at pre-dose and post-dose.

[2] = test system: CYP2D6; design: method as in not given; conditions: in vitro; forms metabolites CK-3834282 and CK-3834283; ref not given; cited from earlier work
[3] = test system: healthy Western participants; conditions: 2022, cited from earlier work
[4] = MD 5 mg N=9, 25.5 h (1.5 hours post-dose on Day 2)
[5] = MD 5 mg N=9, 73.5 h (1.5 hours post-dose on Day 4)
[6] = MD 5 mg N=9, 193.5 h (1.5 hours post-dose on Day 9)
[7] = MD 5 mg N=9, 315 h (3 hours post-dose on Day 14)
[8] = MD 5 mg N=9, 336 h (24 hours post-dose on Day 14)

## CCc1nc(-c2ccc3c(c2)CC[C@H]3NC(=O)c2cnn(C)c2)no1 [aficamten]
[1]; MD 5 mg N=9, 1.5 h
  LVEF Change From Baseline ≤ -5, participants: 1 (11.11%) n (%)
  LVEF Change From Baseline ≤ -10, participants: 0 (0%) n (%)
  LVEF Change From Baseline ≤ -15, participants: 0 (0%) n (%)
  LVFS Change from Baseline ≤ -5, participants: 3 (33.33%) n (%)
  LVFS Change from Baseline ≤ -10, participants: 1 (11.11%) n (%)
  LVFS Change from Baseline ≤ -15, participants: 0 (0%) n (%)
[1]; [4]
  LVEF Change From Baseline ≤ -5, participants: 4 (44.44%) n (%)
  LVEF Change From Baseline ≤ -10, participants: 0 (0%) n (%)
  LVEF Change From Baseline ≤ -15, participants: 0 (0%) n (%)
  LVFS Change from Baseline ≤ -5, participants: 4 (44.44%) n (%)
  LVFS Change from Baseline ≤ -10, participants: 0 (0%) n (%)
  LVFS Change from Baseline ≤ -15, participants: 0 (0%) n (%)
[1]; [5]
  LVEF Change From Baseline ≤ -5, participants: 3 (33.33%) n (%)
  LVEF Change From Baseline ≤ -10, participants: 0 (0%) n (%)
  LVEF Change From Baseline ≤ -15, participants: 0 (0%) n (%)
  LVFS Change from Baseline ≤ -5, participants: 5 (55.56%) n (%)
  LVFS Change from Baseline ≤ -10, participants: 1 (11.11%) n (%)
  LVFS Change from Baseline ≤ -15, participants: 0 (0%) n (%)
[1]; [6]
  LVEF Change From Baseline ≤ -5, participants: 1 (11.11%) n (%)
  LVEF Change From Baseline ≤ -10, participants: 0 (0%) n (%)
  LVEF Change From Baseline ≤ -15, participants: 0 (0%) n (%)
  LVFS Change from Baseline ≤ -5, participants: 4 (44.44%) n (%)
  LVFS Change from Baseline ≤ -10, participants: 0 (0%) n (%)
  LVFS Change from Baseline ≤ -15, participants: 0 (0%) n (%)
[1]; [7]
  LVEF Change From Baseline ≤ -5, participants: 2 (22.22%) n (%)
  LVEF Change From Baseline ≤ -10, participants: 0 (0%) n (%)
  LVEF Change From Baseline ≤ -15, participants: 0 (0%) n (%)
  LVFS Change from Baseline ≤ -5, participants: 1 (11.11%) n (%)
  LVFS Change from Baseline ≤ -10, participants: 0 (0%) n (%)
  LVFS Change from Baseline ≤ -15, participants: 0 (0%) n (%)
[1]; [8]
  LVEF Change From Baseline ≤ -5, participants: 2 (22.22%) n (%)
  LVEF Change From Baseline ≤ -10, participants: 0 (0%) n (%)
  LVEF Change From Baseline ≤ -15, participants: 0 (0%) n (%)
  LVFS Change from Baseline ≤ -5, participants: 1 (11.11%) n (%)
  LVFS Change from Baseline ≤ -10, participants: 0 (0%) n (%)
  LVFS Change from Baseline ≤ -15, participants: 0 (0%) n (%)
[1]; MD 5 mg cohort
  exposure–response analysis of change from baseline in echocardiogram parameters vs time-matched plasma concentrations: did not show a statistically significant effect
[1]; SAD 10 mg N=6, 1.5 h
  LVEF Change From Baseline ≤ -5, participants: 1 (16.67%) n (%)
  LVEF Change From Baseline ≤ -10, participants: 0 (0%) n (%)
  LVEF Change From Baseline ≤ -15, participants: 0 (0%) n (%)
  LVFS Change from Baseline ≤ -5, participants: 1 (16.67%) n (%)
  LVFS Change from Baseline ≤ -10, participants: 0 (0%) n (%)
  LVFS Change from Baseline ≤ -15, participants: 0 (0%) n (%)
[1]; SAD 10 mg N=6, 4 h
  LVEF Change From Baseline ≤ -5, participants: 1 (16.67%) n (%)
  LVEF Change From Baseline ≤ -10, participants: 0 (0%) n (%)
  LVEF Change From Baseline ≤ -15, participants: 0 (0%) n (%)
  LVFS Change from Baseline ≤ -5, participants: 0 (0%) n (%)
  LVFS Change from Baseline ≤ -10, participants: 0 (0%) n (%)
  LVFS Change from Baseline ≤ -15, participants: 0 (0%) n (%)
[1]; SAD 10 mg N=6, 24 h
  LVEF Change From Baseline ≤ -5, participants: 0 (0%) n (%)
  LVEF Change From Baseline ≤ -10, participants: 0 (0%) n (%)
  LVEF Change From Baseline ≤ -15, participants: 0 (0%) n (%)
  LVFS Change from Baseline ≤ -5, participants: 1 (16.67%) n (%)
  LVFS Change from Baseline ≤ -10, participants: 0 (0%) n (%)
  LVFS Change from Baseline ≤ -15, participants: 0 (0%) n (%)
[1]; SAD 10 mg-dose group, 1.5 h post-dose
  number of subjects with LVEF reduction of 5%–10%: one
[1]; SAD 20 mg N=6, 1.5 h
  LVEF Change From Baseline ≤ -5, participants: 3 (50%) n (%)
  LVEF Change From Baseline ≤ -10, participants: 1 (16.67%) n (%)
  LVEF Change From Baseline ≤ -15, participants: 0 (0%) n (%)
  LVFS Change from Baseline ≤ -5, participants: 3 (50%) n (%)
  LVFS Change from Baseline ≤ -10, participants: 1 (16.67%) n (%)
  LVFS Change from Baseline ≤ -15, participants: 0 (0%) n (%)
[1]; SAD 20 mg N=6, 4 h
  LVEF Change From Baseline ≤ -5, participants: 2 (33.33%) n (%)
  LVEF Change From Baseline ≤ -10, participants: 0 (0%) n (%)
  LVEF Change From Baseline ≤ -15, participants: 0 (0%) n (%)
  LVFS Change from Baseline ≤ -5, participants: 1 (16.67%) n (%)
  LVFS Change from Baseline ≤ -10, participants: 0 (0%) n (%)
  LVFS Change from Baseline ≤ -15, participants: 0 (0%) n (%)
[1]; SAD 20 mg N=6, 24 h
  LVEF Change From Baseline ≤ -5, participants: 1 (16.67%) n (%)
  LVEF Change From Baseline ≤ -10, participants: 0 (0%) n (%)
  LVEF Change From Baseline ≤ -15, participants: 0 (0%) n (%)
  LVFS Change from Baseline ≤ -5, participants: 2 (33.33%) n (%)
  LVFS Change from Baseline ≤ -10, participants: 0 (0%) n (%)
  LVFS Change from Baseline ≤ -15, participants: 0 (0%) n (%)
[1]; SAD 20 mg group, 1.5 h post-dose
  number of subjects with LVEF reduction of 10%–15%: one
[1]; SAD 20 mg-dose group, 1.5 h post-dose
  number of participants with LVEF reduction of 5%–10%: three
[1]; SAD cohorts, group 2: 37.6–56.3 ng/mL, p < 0.05
  LVFS change from baseline vs placebo group by PK concentration group: statistically significant changes from baseline
[1]; SAD cohorts, group 3: 62.5–199.0 ng/mL, p < 0.05
  LVEF change from baseline vs placebo group by PK concentration group: statistically significant changes from baseline
[1]; SAD cohorts, p < 0.05
  PK–PD relationship between plasma concentration and LVEF and LVFS: significant inverse PK–PD relationships
[1]; any dose group, ANOVA
  PD parameter changes from baseline, dose group vs placebo group: no statistically significant difference
[2]
  CYP isoform involved in metabolism: CYP2D6, as the primary isoform involved in aficamten metabolism
[3]; 5 mg QD 14 days, healthy Western participants, CY 6011, ref Robertson et al., 2019, Malik et al.
  accumulation ratio (AR_AUC0-24): 4.71
[3]; 10 mg single dose, healthy Western participants, ref Malik et al.
  Cmax, mean (SD): 70.5 (69.0) ng/mL
[3]; CYP2D6-PM cohort vs non-poor metabolizers, CY 6011, ref Malik et al.
  effect of CYP2D6 poor metabolizer status on aficamten exposure: comparable; also recorded: did not affect the pharmacokinetics
[3]; SAD 10 mg, healthy Western participants, ref Malik et al.
  median tmax: 1.8 h
[3]; daily dosing, CY 6011, ref Robertson et al., 2019, Malik et al.
  time after which steady-state appeared evident: 14 days
[3]; healthy Western populations, FIH phase 1, ref Robertson et al., 2019, Malik et al.
  safety and tolerability: safe and well-tolerated
